Measured values reported in patent US9328138B2 (priority 2011, dated 2016).

How the values were obtained:
[1] = target: HCV NS3 protease genotype 3a (3A-1) (Hepatitis C virus genotype 3a, UniProt Q81258); assay: HCV NS3 protease time-resolved fluorescence (TRF) assay, genotype 3a; assay type: biochemical; details: Ki 3a
Summary of the method: (§1)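 Pre-incubation of NS3/NS4A protease with inhibitor for 10 min in pH 7.5 HEPES buffer with 10 mM DTT; 25 nM TRF peptide substrate, hydrolysis 6 h at room temperature. Fluorescence read at ex 340/em 615 nm with 400 μs delay, enzyme level set for S/B 5-20; IC50 by four-parameter fit.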

[2] = target: T1, HCV genotype 1b (BK) NS3 modified enzyme with a R155K mutation (Hepatitis C virus genotype 1b, UniProt P26663, R1181K); assay: HCV NS3 protease time-resolved fluorescence (TRF) assay, genotype 1b R155K; assay type: biochemical; details: Ki 1b R155K, genotype 1b (BK) NS3 R155K; single value
T1 construct: HCV genotype 1b (BK) NS3 modified enzyme
Summary of the method: as §1

COc1c2c(nc3ccccc13)O[C@@H]1C[C@@H](C(=O)N[C@]3(C(=O)NS(=O)(=O)C4CC4)C[C@H]3C3CC3)N(C1)C(=O)[C@H](C1CCCC1)NC(=O)O[C@@H]1CCC[C@H]1CC/C=C/C2 [Example 13, (3aR,7S,10S,12R,21E,24aS)-7-cyclopentyl-N-[(1S,2R)-2-[(cyclopropylsulfonyl)carbamoyl]-1,1′-bi(cyclopropyl)-2-yl]-19-methoxy-5,8-dioxo-1,2,3,3a,5,6,7,8,11,12,20,23,24,24a-tetradecahydro-10H-9,12-methanocyclopenta[18,19][1,10,3,6] dioxadiazacyclononadecino[11,12-b]quinoline-10-carboxamide]
Ki [1]: 15 nM
Ki [2]: 0.93 nM

C=CC1C[C@]1(NC(=O)[C@@H]1C[C@@H]2CN1C(=O)[C@H](C1CCCC1)NC(=O)O[C@@H]1CCC[C@H]1CC/C=C/Cc1c(nc3ccccc3c1OCCN1CCCC1)O2)C(=O)NS(=O)(=O)C1CC1 (stereo partly drawn) [Example 80, (3aR,7S,10S,12R,21E,24aS)-7-cyclo pentyl-N-{(1R,2S)-1-[(cyclopropylsulfonyl)carbamoyl]-2-ethenylcyclopropyl}-5,8-dioxo-19-[2-(pyrrolidin-1-yl)ethoxy]-1,2,3,3a,5,6,7,7,8,11,12,20,23,24,24a-tetradecahydro-10H-9,12-methanocyclopenta[18,19] [1,10,3,6]dioxa diazacyclononadecino[11,12-b] quinoline-10-carboxamide]
Ki [1]: 2.4 nM
Ki [2]: 0.2 nM

C=C[C@@H]1C[C@]1(NC(=O)[C@@H]1C[C@@H]2CN1C(=O)[C@H](C(C)(C)C)NC(=O)O[C@@H]1C[C@H]1CCCCCc1c(nc3ccccc3c1OCCCN1CCC1)O2)C(=O)NS(=O)(=O)C1(C)CC1 [Example 133, (1aR,5S,8S,10R,22aR)-17-[3-(azetidin-1-yl)propoxy]-5-tert-butyl-N-[(1R,2S)-2-ethenyl-1-{[(1-methylcyclopropyl)sulfonyl]carbamoyl}cyclopropyl]-3,6-dioxo-1,1a,3,4,5,6,9,10,18,19,20,21,22,22a-tetradecahydro-8H-7,10-methanocyclopropa[18,19][1,10,3,6]dioxadiazacyclononadecino[11,12-b]quinoline-8-carboxamide]
Ki [1]: 1 nM
Ki [2]: 0.11 nM

O=C1N[C@@H](C2CCCC2)C(=O)N2C[C@@H](C[C@H]2C(=O)N[C@]2(C(=O)NS(=O)(=O)C3CC3)C[C@H]2C2CC2)Oc2nc3ccccc3c(O)c2C/C=C/CC[C@@H]2CCC[C@H]2O1 [Example 21, (3aR,7S,10S,12R,21E,24aS)-7-cyclopentyl-N-[(1S,2R)-2-[(cyclopropylsulfonyl)carbamoyl]-1,1′-bi(cyclopropyl)-2-yl]-19-hydroxy-5,8-dioxo-1,2,3,3a,5,6,7,8,11,12,20,23,24,24a-tetradecahydro-10H-9,12-methanocyclopenta[18,19][1,10,3,6]dioxadiazacyclononadecino[11,12-b]quinoline-10-carboxamide]
Ki [1]: 9.6 nM
Ki [2]: 0.51 nM

C=C[C@@H]1C[C@]1(NC(=O)[C@@H]1C[C@@H]2CN1C(=O)[C@H](C(C)(C)C)NC(=O)O[C@@H]1C[C@H]1CCCCCc1c(nc3ccccc3c1OCCCN(CCOC)CCOC)O2)C(=O)NS(=O)(=O)C1(C)CC1 [Example 186, (1aR,5S,8S,10R,22aR)-17-{3-[bis(2-methoxyethyl)amino]propoxy}-5-tert-butyl-N-[(1R,2S)-2-ethenyl-1-{[(1-methylcyclopropyl)sulfonyl]carbamoyl}cyclopropyl]-3,6-dioxo-1,1a,3,4,5,6,9,10, 18,19,20,21,22,22a-tetradecahydro-8H-7,10-methanocyclopropa[18,19][1,10,3,6] dioxadiazacyclononadecino[11,12-b] quinoline-8-carboxamide]
Ki [1]: 1.9 nM
Ki [2]: 0.078 nM

C=C[C@@H]1C[C@]1(NC(=O)[C@@H]1C[C@@H]2CN1C(=O)[C@H](C1CCCC1)NC(=O)O[C@@H]1CCC[C@H]1CC/C=C/Cc1c(nc3ccccc3c1OCCCN1CCCC1)O2)C(=O)NS(=O)(=O)C1(C)CC1 [Example 54, (3aR,7S,10S,12R,21E,24aS)-7-cyclopentyl-N-[(1R,2S)-2-ethenyl-1-{[(1-methylcyclopropyl)sulfonyl]carbamoyl}cyclopropyl]-5,8-dioxo-19-[3-(pyrrolidin-1-yl)propoxy]-1,2,3,3a,5,6,7,8,11,12,20,23,24,24a-tetradecahydro-10H-9,12-methanocyclopenta[18,19][1,10,3,6] dioxadiazacyclononadecino[11,12-b] quinoline-10-carboxamide]
Ki [1]: 0.45 nM
Ki [2]: 0.02 nM

C=C[C@@H]1C[C@]1(NC(=O)[C@@H]1C[C@@H]2CN1C(=O)[C@H](C1CCCC1)NC(=O)O[C@@H]1C[C@H]1CC/C=C/Cc1c(nc3ccccc3c1OC)O2)C(=O)NS(=O)(=O)C1CC1 [Example 11, (1aR,5S,10R,19E,22aR)-5-cyclo pentyl-N-{(1R,2S)-1-[(cyclopropylsulfonyl)carbamoyl]-2-ethenylcyclopropyl}-17-methoxy-3,6-dioxo-1,1a, 3,4,5,6,9,10,18,21,22,22a-dodeca hydro-8H-7,10-methanocyclopropa[18,19][1,10,3,6] dioxadiazacyclononadecino[11,12-b] quinoline-8-carboxamide]
Ki [1]: 11 nM
Ki [2]: 0.26 nM

C=C[C@@H]1C[C@]1(NC(=O)[C@@H]1C[C@@H]2CN1C(=O)[C@H](C1CCCC1)NC(=O)O[C@@H]1CCC[C@H]1CC/C=C/Cc1c(nc3ccc(Br)cc3c1O)O2)C(=O)NS(=O)(=O)C1CC1 [Example 22, (3aR,7S,10S,12R,21E,24aS)-17-bromo-7-cyclopentyl-N-{(1R,2S)-1-[(cyclopropylsulfonyl)carbamoyl]-2-ethenylcyclopropyl}-19-hydroxy-5,8-dioxo-1,2,3,3a,5,6,7,8,11,12,20,23,24,24a-tetradecahydro-10H-9,12-methanocyclopenta[18,19][1,10,3,6]dioxadiazacyclononadecino[11,12-b]quinoline-10-carboxamide]
Ki [1]: 9.3 nM
Ki [2]: 0.33 nM

C=C[C@@H]1C[C@]1(NC(=O)[C@@H]1C[C@@H]2CN1C(=O)[C@H](C1CCCC1)NC(=O)O[C@@H]1CCC[C@H]1CC/C=C/Cc1c(nc3ccccc3c1OCCCOP(=O)(O)O)O2)C(=O)NS(=O)(=O)C1CC1 [Example 95, 3-{[(3aR,7S,10S,12R,21E,24aS)-7-cyclopentyl-10-({(1R,2S)-1-[(cyclopropylsulfonyl)carbamoyl]-2-ethenylcyclopropyl}carbamoyl)-5,8-dioxo-1,2,3,3a,5,6,7,8,11,12,20,23,24,24a-tetradecahydro-10H-9,12-methanocyclopenta[18,19][1,10,3,6]dioxadiazacyclononadecino[11,12-b]quinolin-19-yl]oxy}propyl dihydrogen phosphate]
Ki [1]: 1 nM
Ki [2]: 0.18 nM

C=C[C@@H]1C[C@]1(NC(=O)[C@@H]1C[C@@H]2CN1C(=O)[C@H](C1CCCCC1)NC(=O)O[C@@H]1C[C@H]1CCCCCc1c(nc3ccccc3c1OC1CCN(C)CC1)O2)C(=O)NS(=O)(=O)C1(C)CC1 [Example 211, (1aR,5S,8S,10R,22aR)-5-cyclohexyl-N-[(1R,2S)-2-ethenyl-1-{[(1-methylcyclopropyl)sulfonyl]carbamoyl}cyclopropyl]-17-[(1-methylpiperidin-4-yl)oxy]-3,6-dioxo-1,1a,3,4,5,6,9,10,18,19,20,21,22,22a-tetradecahydro-8H-7,10-methanocyclopropa[18,19][1,10,3,6] dioxadiazacyclononadecino[11,12-b]quinoline-8-carboxamide]
Ki [1]: 0.3 nM
Ki [2]: 0.033 nM
